From patent US12391669B2, “Substituted pyrimidines as IRE1 kinase inhibitors” (THE REGENTS OF THE UNIVERSITY OF CALIFORNIA, priority 2018, dated 2025) come the findings set out here.

Common to all, as to type: biochemical
One experiment addresses IRE1α kinase (Homo sapiens (Human), UniProt O75460). As to the kind of experiment: IRE1α kinase IC50.
A further experiment has as its target IRE1α RNase (Homo sapiens (Human), UniProt O75460). The experiment in a line: IRE1α RNase IC50.
For another experiment, the target named is IRE1β kinase (Homo sapiens (Human), UniProt Q76MJ5). The experiment in a line: IRE1β kinase IC50.

Molecules are shown by their SMILES. Like-named read-outs stand apart in the source and are kept apart here.

Sequence of IRE1α kinase (O75460 19-977): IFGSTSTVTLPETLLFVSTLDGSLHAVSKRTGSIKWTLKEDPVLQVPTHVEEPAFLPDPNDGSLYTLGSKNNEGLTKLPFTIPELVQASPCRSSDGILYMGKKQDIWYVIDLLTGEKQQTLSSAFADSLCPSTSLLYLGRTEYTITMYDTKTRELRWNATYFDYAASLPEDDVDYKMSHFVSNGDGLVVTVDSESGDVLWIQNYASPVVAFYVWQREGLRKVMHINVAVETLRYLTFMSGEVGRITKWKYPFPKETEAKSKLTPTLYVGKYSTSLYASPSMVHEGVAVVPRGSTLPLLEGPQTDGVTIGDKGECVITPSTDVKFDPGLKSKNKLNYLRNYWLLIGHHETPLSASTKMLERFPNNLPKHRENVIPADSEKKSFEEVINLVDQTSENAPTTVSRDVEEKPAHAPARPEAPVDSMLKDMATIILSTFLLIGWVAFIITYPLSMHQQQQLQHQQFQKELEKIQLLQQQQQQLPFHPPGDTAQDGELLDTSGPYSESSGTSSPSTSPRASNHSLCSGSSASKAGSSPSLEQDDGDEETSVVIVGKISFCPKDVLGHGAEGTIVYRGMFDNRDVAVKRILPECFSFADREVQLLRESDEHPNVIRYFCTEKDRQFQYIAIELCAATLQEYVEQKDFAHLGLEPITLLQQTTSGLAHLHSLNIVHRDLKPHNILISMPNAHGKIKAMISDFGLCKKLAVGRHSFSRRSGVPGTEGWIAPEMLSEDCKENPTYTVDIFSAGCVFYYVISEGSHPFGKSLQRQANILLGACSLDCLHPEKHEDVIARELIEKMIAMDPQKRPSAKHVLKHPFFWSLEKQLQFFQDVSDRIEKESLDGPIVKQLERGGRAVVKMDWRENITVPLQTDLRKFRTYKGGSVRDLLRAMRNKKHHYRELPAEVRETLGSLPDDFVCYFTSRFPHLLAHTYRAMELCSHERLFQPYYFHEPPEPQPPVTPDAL
Sequence of IRE1α RNase (O75460 19-977): as above
Sequence of IRE1β kinase (Q76MJ5 35-926): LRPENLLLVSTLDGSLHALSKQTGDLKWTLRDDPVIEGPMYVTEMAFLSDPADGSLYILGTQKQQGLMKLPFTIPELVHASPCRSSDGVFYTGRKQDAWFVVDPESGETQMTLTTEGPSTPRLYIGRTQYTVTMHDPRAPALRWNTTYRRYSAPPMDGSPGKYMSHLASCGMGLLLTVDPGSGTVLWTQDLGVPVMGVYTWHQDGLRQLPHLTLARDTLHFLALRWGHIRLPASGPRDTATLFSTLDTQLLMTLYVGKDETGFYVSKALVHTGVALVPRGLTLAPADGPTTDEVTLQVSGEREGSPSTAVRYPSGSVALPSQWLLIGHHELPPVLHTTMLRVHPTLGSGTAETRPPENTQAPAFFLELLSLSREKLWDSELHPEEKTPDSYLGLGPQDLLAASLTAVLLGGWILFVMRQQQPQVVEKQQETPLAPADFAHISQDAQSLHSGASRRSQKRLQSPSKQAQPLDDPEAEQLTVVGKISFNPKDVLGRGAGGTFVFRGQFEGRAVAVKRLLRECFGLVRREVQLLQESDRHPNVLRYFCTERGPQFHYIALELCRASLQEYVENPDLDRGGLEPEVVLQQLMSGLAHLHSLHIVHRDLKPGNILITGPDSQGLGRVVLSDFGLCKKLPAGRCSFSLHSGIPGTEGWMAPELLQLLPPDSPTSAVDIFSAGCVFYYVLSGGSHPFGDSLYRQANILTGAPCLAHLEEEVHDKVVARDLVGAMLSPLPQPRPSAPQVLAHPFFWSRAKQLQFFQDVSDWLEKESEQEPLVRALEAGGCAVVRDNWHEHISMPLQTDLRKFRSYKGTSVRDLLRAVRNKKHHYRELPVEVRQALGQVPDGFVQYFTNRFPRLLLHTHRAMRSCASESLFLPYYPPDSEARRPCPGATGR

In the case of `Cc1ccc(C(=O)NCc2ccccc2Cl)cc1Oc1ncsc1-c1ccnc(N[C@H]2CCCNC2)n1` [compound 20, (S)—N-(2-chlorobenzyl)-4-methyl-3-(5-(2-(piperidin-3-ylamino)pyrimidin-4-yl)thiazol-4-yloxy) benzamide], the IC50 at IRE1α kinase ((HF)) came out at 55 nM. The “IRE1α RNase IC50” value at IRE1α RNase (result in words, pIRE1α) is on record as “No inhibition of pIRE1α”.
In the case of `O=S(=O)(Cc1ccccc1Cl)Nc1ccc(Oc2nccnc2-c2ccnc(N[C@H]3CCCNC3)n2)cc1F` [compound 73, (S)-1-(2-chlorophenyl)-N-(2-fluoro-4-(3-(2-(piperidin-3-ylamino)pyrimidin-4-yl)pyrazin-2-yloxy)phenyl) methane sulfonamide], the results for the IC50 at IRE1α kinase and at IRE1β kinase were 961 nM and 1570 nM, respectively.
In turn, `O=C(NCc1ccccc1Cl)c1cccc(Oc2ncsc2-c2ccnc(N[C@H]3CCCNC3)n2)c1` [compound 51, (S)—N-(2-chlorobenzyl)-3-(5-(2-(piperidin-3-ylamino)pyrimidin-4-yl)thiazol-4-yloxy)benzamide] had an IC50 against IRE1α kinase ((HF)) of 524 nM.
In the case of `O=S(=O)(Nc1cccc2c(Oc3ncsc3-c3ccnc(N[C@H]4CCCNC4)n3)cccc12)c1ccccc1Cl` [compound 47, (S)-2-chloro-N-(5-(5-(2-(piperidin-3-ylamino)pyrimidin-4-yl)thiazol-4-yloxy)naphthalen-1-yl)benzenesulfonamide], the IC50 at IRE1α kinase was 10 nM; at IRE1α RNase ((HF)) it was 8.3 nM; at IRE1β kinase it was 181 nM.
With `Cc1cc(NS(=O)(=O)c2ccccc2Cl)ccc1Oc1ncsc1-c1ccnc(N[C@H]2CCCNC2)n1` [compound 39], at IRE1α kinase ((HF)), the midpoint of inhibition, the IC50, lay at 1140 nM.
As to `O=S(=O)(Nc1ccc(Oc2nccnc2-c2ccnc(N[C@H]3CCCNC3)n2)c2ccccc12)c1ccccc1Cl` [compound 84, (S)-2-chloro-N-(4-(3-(2-(piperidin-3-ylamino)pyrimidin-4-yl)pyrazin-2-yloxy)naphthalen-1-yl)benzenesulfonamide], the IC50 on IRE1α kinase was 296 nM; against IRE1β kinase, 1980 nM.
Consider `O=S(=O)(NCc1cccc(Oc2ncsc2-c2ccnc(N[C@H]3CCCNC3)n2)c1)c1ccccc1Cl` [compound 43, (S)-2-chloro-N-(3-(5-(2-(piperidin-3-ylamino)pyrimidin-4-yl)thiazol-4-yloxy)benzyl)benzenesulfonamide], for which the IC50 at IRE1α kinase ((HF)) came to 1600 nM.
Regarding `c1ccc2[nH]c(Cc3ccc(Oc4ncsc4-c4ccnc(N[C@H]5CCCNC5)n4)cc3)nc2c1` [compound 30, (S)-4-(4-(4-((1H-benzo[d]imidazol-2-yl)methyl)phenoxy)thiazol-5-yl)-N-(piperidin-3-yl)pyrimidin-2-amine], the IC50 against IRE1α kinase is 439 nM; on IRE1α RNase, 118 nM; on IRE1β kinase, 8400 nM.
In the case of `O=S(=O)(Nc1ccc(Oc2nccnc2-c2ccnc(N[C@H]3CCCNC3)n2)cc1F)c1ccccc1Cl` [compound 77, (S)-2-chloro-N-(2-fluoro-4-(3-(2-(piperidin-3-ylamino)pyrimidin-4-yl)pyrazin-2-yloxy)phenyl)benzenesulfonamide], the IC50 against IRE1α kinase was determined as 6200 nM; against IRE1β kinase, 2100 nM.
As to `O=S(=O)(Nc1ccc(Oc2ncsc2-c2ccnc(N[C@H]3CCCNC3)n2)cc1F)c1ccccc1Cl` [compound 25], the half-maximal inhibitory concentration (IC50) turned out to be 117 nM against IRE1α kinase, 46 nM on IRE1α RNase ((HF)) and 32 nM at IRE1β kinase.
As for `c1ccc2[nH]c(Cc3ccc(Oc4nccnc4-c4ccnc(N[C@H]5CCCNC5)n4)cc3)nc2c1` [compound 88, (S)-4-(3-(4-((1H-benzo[d]imidazol-2-yl)methyl)phenoxy)pyrazin-2-yl)-N-(piperidin-3-yl)pyrimidin-2-amine], the IC50 against IRE1α kinase was 7300 nM; on IRE1β kinase, above 10000 nM.
Turning to `Cc1nc(Oc2ccc(NS(=O)(=O)c3ccccc3Cl)c3ccccc23)c(-c2ccnc(N[C@H]3CCCNC3)n2)s1` [compound 67, (S)-2-chloro-N-(4-(2-methyl-5-(2-(piperidin-3-ylamino)pyrimidin-4-yl)thiazol-4-yloxy)naphthalen-1-yl)benzenesulfonamide], the results for the IC50 on IRE1α kinase ((HF)) and against IRE1α RNase ((HF)) were 63 nM and 19 nM, respectively.
On to `Cc1ccc(C(=O)Nc2ccccc2Cl)cc1Oc1ncsc1-c1ccnc(N[C@H]2CCCNC2)n1` [compound 16, (S)—N-(2-chlorophenyl)-4-methyl-3-(5-(2-(piperidin-3-ylamino)pyrimidin-4-yl)thiazol-4-yloxy)benzamide], for which the IC50 against IRE1α kinase ((HF)) is 307 nM; at IRE1α kinase ((RB)), 228 nM; at IRE1β kinase it was above 10000 nM.
On to `Cc1ccc(C(=O)N(C)Cc2ccccc2Cl)cc1Oc1ncsc1-c1ccnc(N[C@H]2CCCNC2)n1` [compound 55, (S)—N-(2-chlorobenzyl)-N,4-dimethyl-3-(5-(2-(piperidin-3-ylamino)pyrimidin-4-yl)thiazol-4-yloxy)benzamide], for which, at IRE1α kinase ((HF)), the IC50 came out at 3180 nM.
On to `O=S(=O)(Cc1ccccc1Cl)Nc1ccc(Oc2ncsc2-c2ccnc(N[C@H]3CCCNC3)n2)cc1F` [compound 11, (S)-1-(2-chlorophenyl)-N-(2-fluoro-4-(5-(2-(piperidin-3-ylamino)pyrimidin-4-yl)thiazol-4-yloxy)phenyl)methane sulfonamide], for which the IC50 was 119 nM on IRE1α kinase ((HF)) and 24 nM against IRE1α RNase ((HF)).
In turn, `c1cc(Cc2nc3ccccc3[nH]2)cc(Oc2ncsc2-c2ccnc(N[C@H]3CCCNC3)n2)c1` [compound 35, (S)-4-(4-(3-((1H-benzo[d]imidazol-2-yl)methyl)phenoxy)thiazol-5-yl)-N-(piperidin-3-yl)pyrimidin-2-amine] yielded an IC50 at IRE1α RNase ((HF)) of 153 nM.
`Cc1ccc2c(NS(=O)(=O)c3ccccc3Cl)cccc2c1Oc1nccnc1-c1ccnc(N[C@H]2CCCNC2)n1` [compound 96]: the half-maximal inhibitory concentration (IC50) on IRE1α kinase is 98 nM; at IRE1α RNase ((HF)), 117 nM; against IRE1β kinase, 120 nM.

As usually defined, the IC50 is the point on the concentration scale where inhibition reaches its midpoint. Read a low IC50 as inhibition by little substance.
